target: T1, human PAH with the R408W mutation (Homo sapiens, UniProt P00439, R408W); test: Cell Based Phenylalanine Flux Assay; set-up: scale not given here; details: A375 R408W cells, 24 hrs with compound, then 20 μM sepiapterin and 800 μM 13C9,15N-Phenylalanine for 4 hours; 13C-Tyrosine by LC-MS; average where tested multiple times
T1 construct: expressed in transfected cells
T1 sequence (P00439 1-452 R408W): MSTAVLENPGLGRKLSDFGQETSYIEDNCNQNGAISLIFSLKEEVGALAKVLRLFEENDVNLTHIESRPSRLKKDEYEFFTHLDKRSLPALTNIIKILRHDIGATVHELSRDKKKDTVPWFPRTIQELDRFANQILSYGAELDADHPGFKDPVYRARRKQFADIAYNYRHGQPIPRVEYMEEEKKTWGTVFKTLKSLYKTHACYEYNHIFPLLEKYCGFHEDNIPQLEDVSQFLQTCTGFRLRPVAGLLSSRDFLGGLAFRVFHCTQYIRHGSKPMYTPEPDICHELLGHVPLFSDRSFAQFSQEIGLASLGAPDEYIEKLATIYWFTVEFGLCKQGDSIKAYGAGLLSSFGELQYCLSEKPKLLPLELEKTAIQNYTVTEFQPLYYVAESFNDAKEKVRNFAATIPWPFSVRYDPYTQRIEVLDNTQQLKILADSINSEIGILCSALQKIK

AC50	SMILES
E, E	O=C(c1oc(-c2ccc(F)cn2)nc1C(F)F)N1CCc2[nH]cnc2C1c1ncc2ccccc2n1 (centres unmarked)
E, E,	CC1CN(C(=O)c2oc(C(C)(C)O)nc2C(F)(F)F)C(c2cc3ccccc3cn2)c2nc[nH]c21 [(4R, 7S) diastereomer of (2-(2-hydroxypropan-2-yl)-4-(triflu]
E, E	CN1CCN(c2nc(C(F)F)c(C(=O)N3CCc4[nH]cnc4C3c3ncc4ccccc4n3)o2)CC1 (centres unmarked)
E, E	O=C(c1oc(-c2ccccn2)nc1C(F)(F)F)N1CCc2[nH]cnc2C1c1ncc2ccccc2n1 (centres unmarked)

same assay, conditions: A375 R408W cells, 24 hrs with compound, then 20 μM sepiapterin and 800 μM 13C9,15N-Phenylalanine for 4 hours; 13C-Tyrosine by LC-MS; average where tested multiple times; read-out: AC50

AC50 [µM]	SMILES
> 5	Cc1nnc(CC(=O)N2CCc3[nH]cnc3C2c2cn3ccccc3n2)s1 (centres unmarked)
1 to 5	O=C(C1CC1)N1CCc2[nH]cnc2C1c1ccc2ccccc2n1 (centres unmarked)
1 to 5	O=C(c1nnc(-c2ccccn2)o1)N1CCCc2[nH]cnc2C1c1cc2ccccc2cn1 (centres unmarked)
> 5	O=C(c1nnc(-c2ccc(C(F)(F)F)cc2)o1)N1CCc2[nH]cnc2C1c1ccc2ccccc2n1 (centres unmarked)
> 5	COCCNc1nnc(C(=O)N2CCc3[nH]cnc3C2c2ccc3ccccc3n2)o1 (centres unmarked)
> 5	O=C(c1nnc(COC(F)(F)F)o1)N1CCc2[nH]cnc2C1c1ccc2ccccc2n1 (centres unmarked)
1 to 5	O=C(C1CC1(F)F)N1CCc2[nH]cnc2C1c1cn2ccccc2n1 (centres unmarked)
1 to 5	O=C(c1nnc(-c2ccc(C(F)(F)F)cn2)o1)N1CCc2[nH]cnc2C1c1ccc2ccccc2n1 (centres unmarked)
> 5	O=C(Cc1cnco1)N1CCc2[nH]cnc2C1c1cn2ccccc2n1 (centres unmarked)
1 to 5	O=C(c1nnc(N2CCOCC2)o1)N1CCc2[nH]cnc2C1c1ncc2ccccc2n1 (centres unmarked)
> 5	O=C(c1cnc(C(F)(F)F)s1)N1CCc2[nH]cnc2C1c1cn2ccccc2n1 (centres unmarked)
1 to 5	CC1CN(C(=O)c2nnc(N3CCOCC3)o2)C(c2cc3ccccc3cn2)c2nc[nH]c21 (centres unmarked)
1 to 5	Cn1nc(COC(F)(F)F)cc1C(=O)N1CCc2[nH]cnc2C1c1ccc2ccccc2n1 (centres unmarked)
1 to 5	O=C(c1cncs1)N1CCc2[nH]cnc2C1c1cn2ccccc2n1 (centres unmarked)
1 to 5	COCCNc1nnc(C(=O)N2CC(C)c3[nH]cnc3C2c2cc3ccccc3cn2)o1 (centres unmarked)
> 5	O=C(c1nnc(-c2cnn(S(=O)(=O)C3CC3)c2)o1)N1CCc2[nH]cnc2[C@H]1c1cc2ccccc2cn1
1 to 5	CN1CCN(c2nnc(C(=O)N3CCc4[nH]cnc4[C@H]3c3cc4ccccc4cn3)o2)CC1
1 to 5	O=C(c1oc(C2CC2)nc1C(F)F)N1CCc2[nH]cnc2C1c1ccc2ccccc2n1 (centres unmarked)
1 to 5	CC(C)(O)c1cc(C(=O)N2CCc3[nH]cnc3C2c2ccc3ccccc3n2)no1 (centres unmarked)

same assay, conditions: A375 cells expressing human R408W PAH; 24 hrs compound incubation; 13C-Tyrosine by LC-MS; average where tested multiple times; read-out: AC50

AC50 [µM]	SMILES
1 to 5	CC(C)(C#N)c1nc(C(F)F)c(C(=O)N2CCc3[nH]cnc3C2c2ccc3ccccc3n2)o1 (stereo in doubt) [Example 127, (S)-2-(4-(difluoromethyl)-5-(4-(quinolin-2-yl)-4,5,6,7-tetrahydro-1H-imidazo[4,5-c]pyridine-5-carbonyl)oxazol-2-yl)-2-methylpropanenitrile]
< 0.5	Cc1nc(C(C)(C)O)oc1C(=O)N1C[C@H](C)c2[nH]cnc2[C@H]1c1cc2ccccc2cn1 [Example 389, (2-(2-hydroxypropan-2-yl)-4-methyloxazol-5-yl)((4R,7S)-4-(isoquinolin-3-yl)-7-methyl-6,7-dihydro-1H-imidazo[4,5-c]pyridin-5(4H)-yl)methanone]
1 to 5	CC(F)(F)c1ncc(C(=O)N2CCc3[nH]cnc3[C@H]2c2cn3ccccc3n2)s1 (single isomer, unassigned) [Example 236]
< 0.5	O=C(c1cnn2ccccc12)N1CCc2[nH]cnc2[C@H]1c1cc2ccccc2cn1 [Example 431, (R)-(4-(isoquinolin-3-yl)-6,7-dihydro-1H-imidazo[4,5-c]pyridin-5(4H)-yl)(pyrazolo[1,5-a]pyridin-3-yl)methanone]
0.5 to 1	CN(C)C(=O)c1nnc(N2CCc3[nH]cnc3[C@H]2c2cc3ccccc3cn2)o1 [Example 363, (R)-5-(4-(isoquinolin-3-yl)-6,7-dihydro-1H-imidazo[4,5-c]pyridin-5(4H)-yl)-N,N-dimethyl-1,3,4-oxadiazole-2-carboxamide]
< 0.5	Cc1c(-c2nnc(C(=O)N3CCc4[nH]cnc4[C@H]3c3cc4ccccc4cn3)o2)cnn1C [Example 446, (R)-(5-(1,5-dimethyl-1H-pyrazol-4-yl)-1,3,4-oxadiazol-2-yl)(4-(isoquinolin-3-yl)-6,7-dihydro-1H-imidazo[4,5-c]pyridin-5(4H)-yl)methanone]
> 5	O=C(c1nnc(-c2ccc(OC(F)(F)F)cn2)o1)N1CCc2[nH]cnc2[C@@H]1c1ncc2ccccc2n1 [Example 196, (R)-(4-(quinazolin-2-yl)-6,7-dihydro-1H-imidazo[4,5-c]pyridin-5(4H)-yl)(5-(5-(trifluoromethoxy)pyridin-2-yl)-1,3,4-oxadiazol-2-yl)methanone]
< 0.5	CC(O)c1nc(Br)c(C(=O)N2CCc3[nH]cnc3[C@H]2c2ccc3ccccc3n2)o1 (single isomer, unassigned) [Example 134]
1 to 5	CC(O)c1nc(Cl)c(C(=O)N2CCc3[nH]cnc3[C@@H]2c2ccc3ccccc3n2)o1 (single isomer, unassigned) [Example 136]
< 0.5	Cn1ncnc1C(=O)N1CCc2[nH]cnc2[C@H]1c1ncc2ccccc2n1 [Example 184, (S)-(1-methyl-1H-1,2,4-triazol-5-yl)(4-(quinazolin-2-yl)-6,7-dihydro-1H-imidazo[4,5-c]pyridin-5(4H)-yl)methanone]
> 5	O=C(c1nnc(N2CCC(F)CC2)o1)N1CCc2[nH]cnc2[C@@H]1c1ncc2ccccc2n1 [Example 160, (R)-(5-(4-fluoropiperidin-1-yl)-1,3,4-oxadiazol-2-yl)(4-(quinazolin-2-yl)-6,7-dihydro-1H-imidazo[4,5-c]pyridin-5(4H)-yl)methanone]
0.5 to 1	Cc1nc(C(C)(C)O)oc1C(=O)N1C[C@@H](C)c2[nH]cnc2[C@H]1c1cc2ccccc2cn1 [Example 392, (2-(2-hydroxypropan-2-yl)-4-methyloxazol-5-yl)((4R,7R)-4-(isoquinolin-3-yl)-7-methyl-6,7-dihydro-1H-imidazo[4,5-c]pyridin-5(4H)-yl)methanone]
> 5	Cc1ncoc1C(=O)N1CCc2[nH]cnc2[C@@H]1c1cn2ccccc2n1 [Example 227, (S)-(4-(imidazo[1,2-a]pyridin-2-yl)-6,7-dihydro-1H-imidazo[4,5-c]pyridin-5(4H)-yl)(4-methyloxazol-5-yl)methanone]
< 0.5	O=C(c1cnc(-c2ccc(F)cn2)s1)N1CCc2[nH]cnc2C1c1cc2ccccc2cn1 (stereo in doubt) [Example 312, (R)-(2-(5-fluoropyridin-2-yl)thiazol-5-y1)(4-(isoquinolin-3-yl)-6,7-dihydro-1H-imidazo[4,5-c]pyridin-5(4H)-yl)methanone]
1 to 5	Cc1nc([C@H](C)O)oc1C(=O)N1CCc2[nH]cnc2C1c1ccc2ccccc2n1 (stereo in doubt) [Example 99, (2-((S)-1-hydroxyethyl)-4-methyloxazol-5-yl)((R)-4-(quinolin-2-yl)-6,7-dihydro-1H-imidazo[4,5-c]pyridin-5(4H)-yl)methanone]
> 5	CC(C)(F)c1ncc(C(=O)N2CCc3[nH]cnc3[C@@H]2c2cc3ccccc3cn2)o1 [Example 338, (S)-(2-(2-fluoropropan-2-yl)oxazol-5-yl)(4-(isoquinolin-3-yl)-6,7-dihydro-1H-imidazo[4,5-c]pyridin-5(4H)-yl)methanone]
< 0.5	Cn1nccc1C(=O)N1CCc2[nH]cnc2C1c1ccc2ccccc2n1 (stereo in doubt) [Example 93, (R)-(1-methyl-1H-pyrazol-5-yl)(4-(quinolin-2-yl)-6,7-dihydro-1H-imidazo[4,5-c]pyridin-5(4H)-yl)methanone]
1 to 5	Cc1nc(-c2ccccn2)oc1C(=O)N1CCc2[nH]cnc2[C@@H]1c1ncc2ccccc2n1 [Example 194, (R)-(4-methyl-2-(pyridin-2-yl)oxazol-5-yl)(4-(quinazolin-2-yl)-6,7-dihydro-1H-imidazo[4,5-c]pyridin-5(4H)-yl)methanone]
< 0.5	O=C(c1nnc(N2CCC(F)CC2)o1)N1CCc2[nH]cnc2[C@H]1c1cc2ccccc2cn1 [Example 425, (R)-(5-(4-fluoropiperidin-1-yl)-1,3,4-oxadiazol-2-yl)(4-(isoquinolin-3-yl)-6,7-dihydro-1H-imidazo[4,5-c]pyridin-5(4H)-yl)methanone]
1 to 5	O=C(c1ocnc1C(F)F)N1CCc2nc[nH]c2C1c1ccc2ccccc2n1 (stereo in doubt) [Example 52, (S)-(4-(difluoromethyl)oxazol-5-yl)(4-(quinolin-2-yl)-6,7-dihydro-3H-imidazo[4,5-c]pyridin-5(4H)-yl)methanone]
1 to 5	CC(C)(O)c1nc(Br)c(C(=O)N2CCc3[nH]cnc3C2c2ccc3ccccc3n2)o1 (stereo in doubt) [Example 98, (S)-(4-bromo-2-(2-hydroxypropan-2-yl)oxazol-5-yl)(4-(quinolin-2-yl)-6,7-dihydro-1H-imidazo[4,5-c]pyridin-5(4H)-yl)methanone]

Reference: patent publication US20250262201A1, “COMPOUNDS AND METHODS USEFUL FOR STABILIZING PHENYLALANINE HYDROXYLASE MUTATIONS” (Agios Pharmaceuticals, Inc., priority 2022, published 2025)
